Data from PubChem BioAssay AID330 (DTP/NCI, 2004).
Where “and” joins values, the source holds several entries; their conditions need not be identical. Equal values may be shown once. Toxic doses and inconclusive results are not listed.

Tested on: P388 leukemia ip, CD2F1 mice, survival T/C
Experiment: NCI In Vivo Anticancer Drug Screen. Data for tumor model P388 Leukemia (intraperitoneal) in CD2F1 (CDF1) mice
Settings: endpoint: median survival time, higher = longer survival
How it was run: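 Mice carrying the transplanted tumor received test compound or vehicle. Survival was recorded in each group, and the value is the treated-group measurement divided by that of the vehicle-treated control group.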

[1] = dose: 50.0 mg/kg/injection, schedule: Q01DX009 (ip), vehicle: Klucel (hydroxypropylcellulose) (HPC)
[2] = dose: 100.0 mg/kg/injection, schedule: Q01DX009 (ip), vehicle: Klucel (hydroxypropylcellulose) (HPC)
[3] = dose: 100.0 mg/kg/injection, schedule: Q01DX001 (ip), vehicle: Klucel (hydroxypropylcellulose) (HPC)
[4] = dose: 200.0 mg/kg/injection, schedule: Q01DX001 (ip), vehicle: Klucel (hydroxypropylcellulose) (HPC)
[5] = dose: 50.0 mg/kg/injection, schedule: Q01DX005 (ip), vehicle: saline with Tween-80
[6] = dose: 100.0 mg/kg/injection, schedule: Q01DX005 (ip), vehicle: saline with Tween-80
[7] = dose: 200.0 mg/kg/injection, schedule: Q01DX005 (ip), vehicle: saline with Tween-80
[8] = dose: 50.0 mg/kg/injection, schedule: Q01DX009 (ip), vehicle: saline with Tween-80
[9] = dose: 50.0 mg/kg/injection, schedule: Q01DX005 (ip), vehicle: saline
[10] = dose: 100.0 mg/kg/injection, schedule: Q01DX005 (ip), vehicle: saline
[11] = dose: 200.0 mg/kg/injection, schedule: Q01DX005 (ip), vehicle: saline
[12] = dose: 50.0 mg/kg/injection, schedule: Q01DX009 (ip), vehicle: saline
[13] = dose: 100.0 mg/kg/injection, schedule: Q01DX009 (ip), vehicle: saline
[14] = dose: 200.0 mg/kg/injection, schedule: Q01DX009 (ip), vehicle: saline
[15] = dose: 200.0 mg/kg/injection, schedule: Q01DX009 (ip), vehicle: Klucel (hydroxypropylcellulose) (HPC)
[16] = dose: 6.25 mg/kg/injection, schedule: Q01DX005 (ip), vehicle: saline with Tween-80
[17] = dose: 12.5 mg/kg/injection, schedule: Q01DX005 (ip), vehicle: saline with Tween-80
[18] = dose: 25.0 mg/kg/injection, schedule: Q01DX005 (ip), vehicle: saline with Tween-80

## CC(=O)Oc1c(C)c(O)c(C(C)=O)c2c1C1(C)C(=O)C(C(C)=O)=C(O)C=C1O2 (centres undefined)
dose: 6.25 mg/kg/injection, schedule: Q01DX009 (ip), vehicle: gum acacia
  T/C: 104 % of control and 107 % of control
dose: 12.5 mg/kg/injection, schedule: Q01DX009 (ip), vehicle: gum acacia
  T/C: 101 % of control and 106 % of control
dose: 25.0 mg/kg/injection, schedule: Q01DX009 (ip), vehicle: gum acacia
  T/C: 101 % of control and 110 % of control
dose: 50.0 mg/kg/injection, schedule: Q01DX009 (ip), vehicle: gum acacia
  T/C: 100 % of control and 104 % of control
dose: 100.0 mg/kg/injection, schedule: Q01DX009 (ip), vehicle: gum acacia
  T/C: 108 % of control and 110 % of control
dose: 200.0 mg/kg/injection, schedule: Q01DX009 (ip), vehicle: gum acacia
  T/C: 113 % of control and 119 % of control

## CN1CC1c1cc2ccccc2c2ccccc12 (centres undefined)
dose: 100.0 mg/kg/injection, schedule: Q01DX001 (ip), vehicle: suspension in saline
  T/C: 107 % of control
dose: 200.0 mg/kg/injection, schedule: Q01DX001 (ip), vehicle: suspension in saline
  T/C: 98 % of control
dose: 400.0 mg/kg/injection, schedule: Q01DX001 (ip), vehicle: suspension in saline
  T/C: 101 % of control

## CNC(=O)OCc1c(COC(=O)NC)c(C)n(-c2ccc(OC)cc2)c1C
dose: 12.5 mg/kg/injection, schedule: Q01DX009 (ip), vehicle: Klucel (hydroxypropylcellulose) (HPC)
  T/C: 152 % of control
dose: 25.0 mg/kg/injection, schedule: Q01DX009 (ip), vehicle: Klucel (hydroxypropylcellulose) (HPC)
  T/C: 153 % of control
[1]
  T/C: 171 % of control

## c1ccc2c(c1)SP(P1Sc3ccccc3S1)S2
[1]
  T/C: 100 % of control
[2]
  T/C: 107 % of control

## CC1CCC2OC23C(=O)C2OC2C(C(C)(C)O)C13C (centres undefined)
[3]
  T/C: 104 % of control
[4]
  T/C: 101 % of control
dose: 400.0 mg/kg/injection, schedule: Q01DX001 (ip), vehicle: Klucel (hydroxypropylcellulose) (HPC)
  T/C: 100 % of control

## [O-][n+]1c2ccccc2[n+]([O-])c2c3ccccc3[nH]c21
[5]
  T/C: 95 % of control
[6]
  T/C: 95 % of control
[7]
  T/C: 88 % of control

## COc1nc(N)c2c3c([nH]c2c1C#N)C(C)(C)c1ccccc1N3C
[8]
  T/C: 96 % of control
dose: 100.0 mg/kg/injection, schedule: Q01DX009 (ip), vehicle: saline with Tween-80
  T/C: 100 % of control
dose: 200.0 mg/kg/injection, schedule: Q01DX009 (ip), vehicle: saline with Tween-80
  T/C: 94 % of control

## CN1Cc2c(N)cccc2C(c2ccccc2)C1 (centres undefined)
[1]
  T/C: 96 % of control
[2]
  T/C: 105 % of control

## c1ccc(CN2CCC3(CC2)CO3)cc1
[3]
  T/C: 106 % of control
[4]
  T/C: 100 % of control

## O=S(=O)(O)C1=CC(=N/Br)/C=CC/1=N\Br
[9]
  T/C: 118 % of control and 119 % of control
[10]
  T/C: 115 % of control and 121 % of control
[11]
  T/C: 118 % of control and 121 % of control

## CCOC(=O)C(C)c1ccccc1 (centres undefined)
[12]
  T/C: 96 % of control
[13]
  T/C: 105 % of control
[14]
  T/C: 99 % of control

## Cc1no[n+]([O-])c1NC(=O)OCc1ccccc1
dose: 7.5 mg/kg/injection, schedule: Q01DX005 (ip), vehicle: saline with Tween-80
  T/C: 96 % of control
dose: 15.0 mg/kg/injection, schedule: Q01DX005 (ip), vehicle: saline with Tween-80
  T/C: 100 % of control
dose: 30.0 mg/kg/injection, schedule: Q01DX005 (ip), vehicle: saline with Tween-80
  T/C: 99 % of control
dose: 60.0 mg/kg/injection, schedule: Q01DX005 (ip), vehicle: saline with Tween-80
  T/C: 107 % of control
dose: 120.0 mg/kg/injection, schedule: Q01DX005 (ip), vehicle: saline with Tween-80
  T/C: 101 % of control
dose: 240.0 mg/kg/injection, schedule: Q01DX005 (ip), vehicle: saline with Tween-80
  T/C: 100 % of control

## Cc1cc(C)n(-c2cc(N3CCOCC3)ncn2)n1
[12]
  T/C: 96 % of control
[13]
  T/C: 95 % of control
[14]
  T/C: 98 % of control

## COc1ccc2ccc3c(c2c1)C(=O)C(CC(N)=O)C3 (centres undefined)
dose: 12.5 mg/kg/injection, schedule: Q01DX009 (ip), vehicle: distilled water + Tween-80
  T/C: 97 % of control
dose: 25.0 mg/kg/injection, schedule: Q01DX009 (ip), vehicle: distilled water + Tween-80
  T/C: 93 % of control
dose: 50.0 mg/kg/injection, schedule: Q01DX009 (ip), vehicle: distilled water + Tween-80
  T/C: 92 % of control
dose: 200.0 mg/kg/injection, schedule: Q01DX009 (ip), vehicle: distilled water + Tween-80
  T/C: 93 % of control

## O=[N+]([O-])c1cccc2c[n+](Cc3ccccc3)ccc12
dose: 12.5 mg/kg/injection, schedule: Q01DX009 (ip), vehicle: saline with Tween-80
  T/C: 113 % of control
dose: 25.0 mg/kg/injection, schedule: Q01DX009 (ip), vehicle: saline with Tween-80
  T/C: 118 % of control
[8]
  T/C: 107 % of control

## CCCCCCCCNC(=O)OCc1c2ccccc2cc2ccccc12
[1]
  T/C: 98 % of control
[2]
  T/C: 101 % of control
[15]
  T/C: 98 % of control

## CCCCOc1ccc2nc3cc(Cl)ccc3c(Cl)c2n1
[16]
  T/C: 92 % of control
[17]
  T/C: 93 % of control
[18]
  T/C: 86 % of control

## O=C(O)C(=O)O.[NH2-].[NH2-].[NH2-].[NH2-].[Ru+4]
dose: 3.13 mg/kg/injection, schedule: Q04DX003 (ip), vehicle: water
  T/C: 110 % of control
dose: 25.0 mg/kg/injection, schedule: Q04DX003 (ip), vehicle: water
  T/C: 98 % of control

## O=C(CCCC(=O)Nc1ccc2c(=O)c3ccccc3[nH]c2c1)Nc1ccc2c(=O)c3ccccc3[nH]c2c1
[5]
  T/C: 98 % of control
[6]
  T/C: 104 % of control
[7]
  T/C: 100 % of control

## N#CC1C(=O)NC(=O)C(C#N)C1c1c(Cl)cccc1Cl (centres undefined)
[1]
  T/C: 101 % of control
[2]
  T/C: 99 % of control
[15]
  T/C: 99 % of control

## Cc1ccc(NC(=S)C#N)cc1Cl
[16]
  T/C: 90 % of control
[17]
  T/C: 92 % of control
[18]
  T/C: 90 % of control

## C=C1C(=O)OC2C1CC(O)/C(C)=C\CCC1(C)OC21 (centres undefined)
dose: 50.0 mg/kg/injection, schedule: Q01DX009 (ip), vehicle: distilled water + Tween-80 + alcohol
  T/C: 117 % of control
dose: 70.0 mg/kg/injection, schedule: Q01DX009 (ip), vehicle: distilled water + Tween-80 + alcohol
  T/C: 117 % of control
dose: 70.0 mg/kg/injection, schedule: Q01DX009 (ip), vehicle: water
  T/C: 122 % of control
dose: 90.0 mg/kg/injection, schedule: Q01DX009 (ip), vehicle: distilled water + Tween-80 + alcohol
  T/C: 104 % of control

## OCC1(c2cccnc2)OCCO1
[9]
  T/C: 99 % of control
[10]
  T/C: 101 % of control
[11]
  T/C: 101 % of control

## N#Cc1c(NCc2ccccc2)nc2c3ccccc3ccn2c1=O
dose: 25.0 mg/kg/injection, schedule: Q04DX002 (ip), vehicle: saline with Tween-80
  T/C: 95 % of control
dose: 50.0 mg/kg/injection, schedule: Q04DX002 (ip), vehicle: saline with Tween-80
  T/C: 97 % of control
dose: 100.0 mg/kg/injection, schedule: Q04DX002 (ip), vehicle: saline with Tween-80
  T/C: 95 % of control

## Cc1oc2ccccc2c(=O)c1CN(CCO)CCO
dose: 60.0 mg/kg/injection, schedule: Q01DX005 (ip), vehicle: saline
  T/C: 95 % of control
dose: 120.0 mg/kg/injection, schedule: Q01DX005 (ip), vehicle: saline
  T/C: 101 % of control

## C1CN(CCSSCCN2CCOCC2)CCO1
[12]
  T/C: 104 % of control
[13]
  T/C: 113 % of control
[14]
  T/C: 109 % of control

## Cc1[nH]c2cc(Br)ccc2c1/C=N/NC(N)=S
[3]
  T/C: 107 % of control

## COc1cccc2c1OC(=O)NC2O (centres undefined)
dose: 25.0 mg/kg/injection, schedule: Q01DX005 (ip), vehicle: distilled water + Tween-80
  T/C: 103 % of control
dose: 50.0 mg/kg/injection, schedule: Q01DX005 (ip), vehicle: distilled water + Tween-80
  T/C: 107 % of control
[5]
  T/C: 102 % of control
dose: 100.0 mg/kg/injection, schedule: Q01DX005 (ip), vehicle: distilled water + Tween-80
  T/C: 121 % of control
[6]
  T/C: 122 % of control
dose: 200.0 mg/kg/injection, schedule: Q01DX005 (ip), vehicle: distilled water + Tween-80
  T/C: 110 % of control
[7]
  T/C: 112 % of control
